Results published in US9266835B2, “Quinoline derivatives useful as CB-1 inverse agonists” (JANSSEN PHARMACEUTICA NV, priority 2014, dated 2016).
Structures can show the parent of a compound that is named as a salt.

What was measured:
[1] = target: Human CB2R (Cannabinoid receptor 2) (Homo sapiens (Human), UniProt P34972); test: CB-2 in vitro cAMP assay (HTRF), inverse agonism; type: cell-based; settings: mean where tested more than once
[2] = target: Human CB1R (Cannabinoid receptor 1) (Homo sapiens (Human), UniProt P21554); test: CB-1 in vitro cAMP assay (HTRF), inverse agonism; type: cell-based; settings: mean where tested more than once
Sequence of Human CB1R (Cannabinoid receptor 1) (P21554 whole entry): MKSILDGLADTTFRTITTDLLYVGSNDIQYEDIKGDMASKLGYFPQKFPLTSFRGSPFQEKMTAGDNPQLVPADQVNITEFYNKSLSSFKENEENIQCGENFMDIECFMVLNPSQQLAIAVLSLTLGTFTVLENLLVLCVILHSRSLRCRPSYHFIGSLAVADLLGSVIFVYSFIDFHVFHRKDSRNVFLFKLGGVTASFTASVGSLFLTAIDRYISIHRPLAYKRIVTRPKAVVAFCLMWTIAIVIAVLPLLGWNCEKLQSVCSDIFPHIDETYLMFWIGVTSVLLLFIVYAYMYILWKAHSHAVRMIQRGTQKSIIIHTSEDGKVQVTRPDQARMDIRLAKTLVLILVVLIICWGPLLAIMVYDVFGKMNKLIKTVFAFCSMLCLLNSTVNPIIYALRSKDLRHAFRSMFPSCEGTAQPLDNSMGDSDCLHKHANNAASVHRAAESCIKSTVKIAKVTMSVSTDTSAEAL

Sequence of Human CB2R (Cannabinoid receptor 2) (P34972 whole entry): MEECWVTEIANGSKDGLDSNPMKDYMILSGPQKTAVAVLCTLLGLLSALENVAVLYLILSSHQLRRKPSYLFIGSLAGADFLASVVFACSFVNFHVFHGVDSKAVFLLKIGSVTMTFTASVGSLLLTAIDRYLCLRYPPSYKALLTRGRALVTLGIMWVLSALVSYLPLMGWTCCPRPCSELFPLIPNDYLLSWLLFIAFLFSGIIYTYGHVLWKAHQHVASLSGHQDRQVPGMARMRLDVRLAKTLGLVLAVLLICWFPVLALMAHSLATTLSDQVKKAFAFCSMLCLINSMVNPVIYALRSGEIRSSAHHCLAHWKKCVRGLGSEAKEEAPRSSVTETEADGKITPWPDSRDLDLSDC

| SMILES | EC50 [1] | EC50 [2] |
| --- | --- | --- |
| COC(=O)CCCCCOc1cc(NC2CCN(S(=O)(=O)C(F)(F)F)CC2)c2cc(C(c3ccc(Cl)cc3)c3ccc(Cl)cc3)ccc2n1 [Compound 534, Methyl 6-({6-[bis(4-chlorophenyl)methyl]-4-({1-[(trifluoromethyl)sulfonyl]-piperidin-4-yl}amino)quinolin-2-yl}oxy)hexanoate] | > 10000 nM | 2200 nM |
| O=C(O)CCCCCOc1cc(NC2CCN(S(=O)(=O)C(F)(F)F)CC2)c2cc(C(c3ccc(Cl)cc3)c3ccc(Cl)cc3)ccc2n1 [Compound 535, 6-({6-[Bis(4-chlorophenyl)methyl]-4-({1-[(trifluoromethyl)sulfonyl]-piperidin-4-yl}amino)quinolin-2-yl}oxy)hexanoic acid] | 60 nM | 92 nM |
| COc1cc(C(c2ccc(Cl)cc2)c2ccc(Cl)cc2)cc2c(NC3CCN(S(=O)(=O)C(F)(F)F)CC3)ccnc12 [Compound 536, 6-[bis(4-chlorophenyl)methyl]-8-methoxy-N-[1-(trifluoromethane)sulfonylpiperidin-4-yl]quinolin-4-amine] | 204 nM | 100 nM |
| O=C(O)CCCCOc1cc(C(c2ccc(Cl)cc2)c2ccc(Cl)cc2)cc2c(NC3CCN(S(=O)(=O)C(F)(F)F)CC3)ccnc12 [Compound 537, 5-((6-(bis(4-chlorophenyl)methyl)-4-((1-((trifluoromethyl)sulfonyl)piperidin-4-yl)amino)quinolin-8-yl)oxy)pentanoic acid] | 2380 nM | 108 nM |
| NC(=O)CCCCOc1cc(C(c2ccc(Cl)cc2)c2ccc(Cl)cc2)cc2c(NC3CCN(S(=O)(=O)C(F)(F)F)CC3)ccnc12 [Compound 538, 5-((6-(bis(4-chlorophenyl)methyl)-4-((1-((trifluoromethyl)sulfonyl)piperidin-4-yl)amino)quinolin-8-yl)oxy)pentanamide] | 8630 nM | 51 nM |
| CC(C)(C)OC(=O)NCCCCOc1cc(C(c2ccc(Cl)cc2)c2ccc(Cl)cc2)cc2c(NC3CCN(S(=O)(=O)C(F)(F)F)CC3)ccnc12 [Compound 539, tert-butyl (4-((6-(bis(4-chlorophenyl)methyl)-4-((1-((trifluoromethyl)sulfonyl)piperidin-4-yl)amino)quinolin-8-yl)oxy)butyl)carbamate] | > 21000 nM | 96 nM |
| CCOC(=O)CCCCOc1cc(C(c2ccc(Cl)cc2)c2ccc(Cl)cc2)cc2c(NC3CCN(S(=O)(=O)C(F)(F)F)CC3)ccnc12 [Compound 540, ethyl 5-((6-(bis(4-chlorophenyl)methyl)-4-((1-((trifluoromethyl)sulfonyl)piperidin-4-yl)amino)quinolin-8-yl)oxy)pentanoate] | 7100 nM | 81 nM |
| O=S(=O)(N1CCC(Nc2ccnc3c(O)cc(C(c4ccc(Cl)cc4)c4ccc(Cl)cc4)cc23)CC1)C(F)(F)F [Compound 541, 6-(bis(4-chlorophenyl)methyl)-4-((1-((trifluoromethyl)sulfonyl)piperidin-4-yl)amino)quinolin-8-ol] | > 10000 nM | 339 nM |
| NCCCCOc1cc(C(c2ccc(Cl)cc2)c2ccc(Cl)cc2)cc2c(NC3CCN(S(=O)(=O)C(F)(F)F)CC3)ccnc12 [Compound 542, 8-(4-aminobutoxy)-6-(bis(4-chlorophenyl)methyl)-N-(1-((trifluoromethyl)sulfonyl)piperidin-4-yl)quinolin-4-amine, trifluoroacetic acid salt] | > 10000 nM | 144 nM |
| CC(=O)NCCCCOc1cc(C(c2ccc(Cl)cc2)c2ccc(Cl)cc2)cc2c(NC3CCN(S(=O)(=O)C(F)(F)F)CC3)ccnc12 [Compound 543, N-(4-((6-(bis(4-chlorophenyl)methyl)-4-((1-((trifluoromethyl)sulfonyl)piperidin-4-yl)amino)quinolin-8-yl)oxy)butyl)acetamide, trifluoroacetic acid salt] | > 10000 nM | 102 nM |
| CCOC(=O)COc1cc(C(c2ccc(Cl)cc2)c2ccc(Cl)cc2)cc2c(NC3CCN(S(=O)(=O)C(F)(F)F)CC3)cc(=O)[nH]c12 [Compound 544] | 3400 nM | 126 nM |
| O=C(O)COc1cc(C(c2ccc(Cl)cc2)c2ccc(Cl)cc2)cc2c(NC3CCN(S(=O)(=O)C(F)(F)F)CC3)cc(=O)[nH]c12 [Compound 545] | > 10000 nM | 4900 nM |
| COc1cc(NC2CCN(S(=O)(=O)C(F)(F)F)CC2)c2cc(C(c3ccc(Cl)cc3)c3ccc(Cl)cc3)cc(Br)c2n1 [Compound 546, 6-(bis(4-chlorophenyl)methyl)-8-bromo-2-methoxy-N-(1-((trifluoromethyl)sulfonyl)piperidin-4-yl)quinolin-4-amine] | 4800 nM | 121 nM |
| COC/C=C/c1cc(C(c2ccc(Cl)cc2)c2ccc(Cl)cc2)cc2c(NC3CCN(S(=O)(=O)C(F)(F)F)CC3)cc(OC)nc12 [Compound 547, 6-(bis(4-chlorophenyl)methyl)-2-methoxy-8-(3-methoxyprop-1-en-1-yl)-N-(1-((trifluoromethyl)sulfonyl)piperidin-4-yl)quinolin-4-amine] | > 42000 nM | 36 nM |
| COCCCc1cc(C(c2ccc(Cl)cc2)c2ccc(Cl)cc2)cc2c(NC3CCN(S(=O)(=O)C(F)(F)F)CC3)cc(OC)nc12 [Compound 548, 6-[bis(4-chlorophenyl)methyl]-2-methoxy-8-(3-methoxypropyl)-N-[1-(trifluoromethane)sulfonylpiperidin-4-yl]quinolin-4-amine] | > 42000 nM | 58 nM |
| COc1cc(NC2CCN(S(=O)(=O)C(F)(F)F)CC2)c2cc(C(c3ccc(Cl)cc3)c3ccc(Cl)cc3)cc(/C=C/CO)c2n1 [Compound 549, (2E)-3-[6-[bis(4-chlorophenyl)methyl]-2-methoxy-4-[[1-(trifluoromethane)sulfonylpiperidin-4-yl]amino]quinolin-8-yl]prop-2-en-1-ol] | 3800 nM | 36 nM |
| COc1cc(NC2CCN(S(=O)(=O)C(F)(F)F)CC2)c2cc(C(c3ccc(Cl)cc3)c3ccc(Cl)cc3)cc(CCCO)c2n1 [Compound 550, 3-(6-(bis(4-chlorophenyl)methyl)-2-methoxy-4-((1-((trifluoromethyl)sulfonyl)piperidin-4-yl)amino)quinolin-8-yl)propan-1-ol] | 115 nM | 31 nM |
| Cn1c(=O)cc(NC2CCN(S(=O)(=O)C(F)(F)F)CC2)c2cc(C(c3ccc(Cl)cc3)c3ccc(Cl)cc3)ccc21 [Compound #49, 6-[bis(4-chlorophenyl)methyl]-1-methyl-4-[[1-(trifluoromethane)sulfonylpiperidin-4-yl]amino]-1,2-dihydroquinolin-2-one] | > 10000 nM | 24 nM |
| O=c1cc(NC2CCN(S(=O)(=O)C(F)(F)F)CC2)c2cc(C(c3ccc(Cl)cc3)c3ccc(Cl)c(Cl)c3)ccc2[nH]1 (centres unmarked) [Compound #53, 6-[(4-chlorophenyl)(3,4-dichlorophenyl)methyl]-4-[[1-(trifluoromethane)sulfonylpiperidin-4-yl]amino]-1,2-dihydroquinolin-2-one] | > 14000 nM | 20 nM |
| COc1ccc(C(c2ccc(Cl)cc2)c2ccc3[nH]c(=O)cc(NC4CCN(S(=O)(=O)C(F)(F)F)CC4)c3c2)cc1 (centres unmarked) [Compound #54, 6-((4-chlorophenyl)(4-methoxyphenyl)methyl)-4-((1-((trifluoromethyl)sulfonyl)piperidin-4-yl)amino)quinolin-2(1H)-one] | 1830 nM | 8 nM |
| CCS(=O)(=O)N1CCC(Nc2cc(=O)[nH]c3ccc(C(c4ccc(Cl)cc4)c4ccc(Cl)cc4)cc23)CC1 [Compound #56, 6-(bis(4-chlorophenyl)methyl)-4-((1-(ethylsulfonyl)piperidin-4-yl)amino)quinolin-2(1H)-one] | > 10000 nM | 22 nM |
| O=c1cc(NCc2cccc(C(F)(F)F)c2)c2cc(C(c3ccc(Cl)cc3)c3ccc(Cl)cc3)ccc2[nH]1 [Compound #61, 6-(bis(4-chlorophenyl)methyl)-4-((3-(trifluoromethyl)benzyl)amino)quinolin-2(1H)-one] | 1810 nM | 7 nM |
| O=c1cc(NC2CCN(S(=O)(=O)C(F)(F)F)CC2)c2cc(C(c3ccc(O)cc3)c3ccc(Cl)cc3)ccc2[nH]1 (centres unmarked) [Compound #66, 6-((4-chlorophenyl)(4-hydroxyphenyl)methyl)-4-((1-((trifluoromethyl)sulfonyl)piperidin-4-yl)amino)quinolin-2(1H)-one] | 7690 nM | 22 nM |
| O=c1cc(NCc2ccc(C(F)(F)F)nc2)c2cc(C(c3ccc(Cl)cc3)c3ccc(Cl)cc3)ccc2[nH]1 [Compound #70, 6-(bis(4-chlorophenyl)methyl)-4-(((6-(trifluoromethyl)pyridin-3-yl)methyl)amino)quinolin-2(1H)-one] | > 10000 nM | 7 nM |
| O=c1cc(NC2CCCCC2)c2cc(C(c3ccc(Cl)cc3)c3ccc(Cl)cc3)ccc2[nH]1 [Compound #71, 6-(bis(4-chlorophenyl)methyl)-4-(cyclohexylamino)quinolin-2(1H)-one] | > 10000 nM | 7 nM |
| O=c1cc(NC2CCN(S(=O)(=O)C(F)(F)F)CC2)c2cc(C(c3ccc(Cl)cc3)c3ccc(Cl)nc3)ccc2[nH]1 (centres unmarked) [Compound #72, 6-[(4-chlorophenyl)(6-chloropyridin-3-yl)methyl]-4-[[1-(trifluoromethane)sulfonylpiperidin-4-yl]amino]-1,2-dihydroquinolin-2-one] | 6600 nM | 11 nM |
| O=c1cc(NC2CCN(CC(F)(F)F)CC2)c2cc(C(c3ccc(Cl)cc3)c3ccc(Cl)cc3)ccc2[nH]1 [Compound #77, 6-(bis(4-chlorophenyl)methyl)-4-((1-(2,2,2-trifluoroethyl)piperidin-4-yl)amino)quinolin-2(1H)-one] | > 10000 nM | 3 nM |
| O=c1cc(NC2CCN(S(=O)(=O)C(F)(F)F)CC2)c2cc(C(Cc3ccc(F)cc3)c3ccc(Cl)cc3)ccc2[nH]1 (centres unmarked) [Compound #135, 6-(1-(4-chlorophenyl)-2-(4-fluorophenyl)ethyl)-4-((1-((trifluoromethyl)sulfonyl)piperidin-4-yl)amino)quinolin-2(1H)-one] | 6810 nM | 1100 nM |
